Experiments:
Assay type in all cases: biochemical
YecD [1] = target: YecD (Escherichia coli, UniProt P0ADI7, V56I/W104E/G134C, form not given); test: hydrolysis kinetics, chiral HPLC; details: standard assay: 50 mM Tris-HCl pH 8.0, 35 °C, racemic γ-lactam
YecD [2] = target: YecD (Escherichia coli, UniProt P0ADI7, G134C, form not given); test: hydrolysis kinetics, chiral HPLC; details: standard assay: 50 mM Tris-HCl pH 8.0, 35 °C, racemic γ-lactam
YecD [3] = target: YecD (Escherichia coli, UniProt P0ADI7, F23A/G134C, form not given); test: hydrolysis kinetics, chiral HPLC; details: standard assay: 50 mM Tris-HCl pH 8.0, 35 °C, racemic γ-lactam
YecD [4] = target: YecD (Escherichia coli, UniProt P0ADI7, W104F/G134C, form not given); test: hydrolysis kinetics, chiral HPLC; details: standard assay: 50 mM Tris-HCl pH 8.0, 35 °C, racemic γ-lactam
YecD [5] = target: YecD (Escherichia coli, UniProt P0ADI7, V56A/G134C, form not given); test: hydrolysis kinetics, chiral HPLC; details: standard assay: 50 mM Tris-HCl pH 8.0, 35 °C, racemic γ-lactam
RutB = target: T1, RutB (Escherichia coli, UniProt P75897); test: γ-lactamase activity screen, chiral HPLC; details: 50 mM Tris-HCl pH 8.0, 35 °C, 4.6 mM racemic γ-lactam
T1 sequence (P75897 1-230): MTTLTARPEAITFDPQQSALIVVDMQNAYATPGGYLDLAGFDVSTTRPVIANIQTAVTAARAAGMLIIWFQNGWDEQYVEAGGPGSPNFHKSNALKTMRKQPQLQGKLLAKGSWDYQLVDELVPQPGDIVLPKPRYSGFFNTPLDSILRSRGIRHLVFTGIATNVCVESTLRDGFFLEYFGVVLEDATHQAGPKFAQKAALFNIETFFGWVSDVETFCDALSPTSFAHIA

YecD [6] = target: YecD (Escherichia coli, UniProt P0ADI7, W104A/G134C, form not given); test: hydrolysis kinetics, chiral HPLC; details: standard assay: 50 mM Tris-HCl pH 8.0, 35 °C, racemic γ-lactam
YecD [7] = target: YecD (Escherichia coli, UniProt P0ADI7, W104Y/G134C, form not given); test: hydrolysis kinetics, chiral HPLC; details: standard assay: 50 mM Tris-HCl pH 8.0, 35 °C, racemic γ-lactam
Sequence of YecD (Escherichia coli, UniProt P0ADI7, W104Y/G134C, form not given) (P0ADI7 whole entry W104Y/G134C, form open): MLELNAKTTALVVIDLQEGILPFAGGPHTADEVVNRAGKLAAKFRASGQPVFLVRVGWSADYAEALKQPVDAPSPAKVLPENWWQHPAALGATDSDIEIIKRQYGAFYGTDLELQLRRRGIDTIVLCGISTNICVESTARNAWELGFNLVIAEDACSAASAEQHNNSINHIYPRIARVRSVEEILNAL

Sequence of YecD (Escherichia coli, UniProt P0ADI7, W104A/G134C, form not given) (P0ADI7 whole entry W104A/G134C, form open): as the sequence (P0ADI7 whole entry W104Y/G134C, form open) above, with Y104A counted along it
Sequence of YecD (Escherichia coli, UniProt P0ADI7, V56A/G134C, form not given) (P0ADI7 whole entry V56A/G134C, form open): as the sequence (P0ADI7 whole entry W104Y/G134C, form open) above, with V56A, Y104W counted along it
Sequence of YecD (Escherichia coli, UniProt P0ADI7, G134C, form not given) (P0ADI7 whole entry G134C, form open): as the sequence (P0ADI7 whole entry W104Y/G134C, form open) above, with Y104W counted along it
Sequence of YecD (Escherichia coli, UniProt P0ADI7, W104F/G134C, form not given) (P0ADI7 whole entry W104F/G134C, form open): as the sequence (P0ADI7 whole entry W104Y/G134C, form open) above, with Y104F counted along it
Sequence of YecD (Escherichia coli, UniProt P0ADI7, F23A/G134C, form not given) (P0ADI7 whole entry F23A/G134C, form open): as the sequence (P0ADI7 whole entry W104Y/G134C, form open) above, with F23A, Y104W counted along it
Sequence of YecD (Escherichia coli, UniProt P0ADI7, V56I/W104E/G134C, form not given) (P0ADI7 whole entry V56I/W104E/G134C, form open): as the sequence (P0ADI7 whole entry W104Y/G134C, form open) above, with V56I, Y104E counted along it

Km (YecD [1]): 16 ± 2 mM
Km (YecD [2]): 72 ± 4 mM
Km (YecD [3]): 67 ± 4 mM
Km (YecD [4]): 74 ± 3 mM
Km (YecD [5]): 70 ± 3 mM
Km (YecD [6]): 79 ± 3 mM
Km (YecD [7]): 36 ± 3 mM
Compound: O=C1N[C@@H]2C=C[C@H]1C2 (racemic) [( +) γ-lactam, 2-azabicyclo [2.2.1] hept-5-en-3-one]
γ-lactamase activity screen, chiral HPLC (RutB): Screening for ( +) γ-lactamase activity revealed that only RutB exhibited this catalytic function

From PMC12553813, “Converting Escherichia coli isochorismatase YecD into γ-lactamase” (Bioresources and Bioprocessing, 2025)
